Source: ChEMBL document CHEMBL1909046, “DrugMatrix in vitro pharmacology data”

What was measured:
Glycine receptor = Glycine receptor (Rattus norvegicus, UniProt P22771+P24524+P07727+P20781); assay type: cell membranes, Wistar, Spinal cord, Membrane; note: in other assays of this panel Not Active means under 50% inhibition at 10 µM
[1] = DRUGMATRIX: Phosphodiesterase PDE4 enzyme inhibition (substrate: [3H]cAMP + cAMP); conditions: u-937; Not Active = under 50% inhibition at 10 µM
[2] = target: Voltage-gated inwardly rectifying potassium channel KCNH2 (Homo sapiens, UniProt Q12809); conditions: hek293; note: in other assays of this panel Not Active means under 50% inhibition at 10 µM
Cytochrome P450 3A4 = Cytochrome P450 3A4 (Homo sapiens, UniProt P08684); conditions: bti-tn-5b1-4; note: in other assays of this panel Not Active means under 50% inhibition at 10 µM
[3] = target: Protein phosphatase 3 catalytic subunit alpha (Homo sapiens, UniProt Q08209); design: species or system Escherichia coli;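 note: inhibition of calcineurin (PP2B) enzyme activity, measured with DiFMUP as the substrate; in other assays of this panel Not Active means under 50% inhibition at 10 µM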
Cathepsin G = target: T1, Cathepsin G (Homo sapiens, UniProt P08311); assay type: tissue-based; conditions: neutrophil
T1 sequence (P08311 whole entry): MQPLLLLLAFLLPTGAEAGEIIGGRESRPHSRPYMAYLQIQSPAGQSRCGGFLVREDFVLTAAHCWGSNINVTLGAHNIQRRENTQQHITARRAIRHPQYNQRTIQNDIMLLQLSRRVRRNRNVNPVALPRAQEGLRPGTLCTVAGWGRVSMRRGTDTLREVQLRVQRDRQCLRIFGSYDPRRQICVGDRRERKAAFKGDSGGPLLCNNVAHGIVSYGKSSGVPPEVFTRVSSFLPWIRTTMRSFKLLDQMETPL

[4] = target: T2, Type-2 angiotensin II receptor (Homo sapiens, UniProt P50052); assay type: cell-based; conditions: cho-k1; note: in other assays of this panel Not Active means under 50% inhibition at 10 µM
T2 sequence (P50052 whole entry): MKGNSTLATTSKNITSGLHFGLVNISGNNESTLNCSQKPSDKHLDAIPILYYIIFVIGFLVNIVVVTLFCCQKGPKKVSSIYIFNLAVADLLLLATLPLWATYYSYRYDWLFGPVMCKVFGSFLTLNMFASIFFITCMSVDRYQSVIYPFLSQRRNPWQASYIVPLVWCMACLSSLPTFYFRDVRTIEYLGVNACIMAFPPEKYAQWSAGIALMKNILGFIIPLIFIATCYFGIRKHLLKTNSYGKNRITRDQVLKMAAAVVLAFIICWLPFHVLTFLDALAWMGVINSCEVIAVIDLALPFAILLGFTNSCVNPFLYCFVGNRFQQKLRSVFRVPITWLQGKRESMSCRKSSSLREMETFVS

[5] = target: Matrix metalloproteinase-9 (Homo sapiens, UniProt P14780); assay: biochemical; assay type: cell-based
Matrix metalloproteinase-9, sequence (P14780 whole entry): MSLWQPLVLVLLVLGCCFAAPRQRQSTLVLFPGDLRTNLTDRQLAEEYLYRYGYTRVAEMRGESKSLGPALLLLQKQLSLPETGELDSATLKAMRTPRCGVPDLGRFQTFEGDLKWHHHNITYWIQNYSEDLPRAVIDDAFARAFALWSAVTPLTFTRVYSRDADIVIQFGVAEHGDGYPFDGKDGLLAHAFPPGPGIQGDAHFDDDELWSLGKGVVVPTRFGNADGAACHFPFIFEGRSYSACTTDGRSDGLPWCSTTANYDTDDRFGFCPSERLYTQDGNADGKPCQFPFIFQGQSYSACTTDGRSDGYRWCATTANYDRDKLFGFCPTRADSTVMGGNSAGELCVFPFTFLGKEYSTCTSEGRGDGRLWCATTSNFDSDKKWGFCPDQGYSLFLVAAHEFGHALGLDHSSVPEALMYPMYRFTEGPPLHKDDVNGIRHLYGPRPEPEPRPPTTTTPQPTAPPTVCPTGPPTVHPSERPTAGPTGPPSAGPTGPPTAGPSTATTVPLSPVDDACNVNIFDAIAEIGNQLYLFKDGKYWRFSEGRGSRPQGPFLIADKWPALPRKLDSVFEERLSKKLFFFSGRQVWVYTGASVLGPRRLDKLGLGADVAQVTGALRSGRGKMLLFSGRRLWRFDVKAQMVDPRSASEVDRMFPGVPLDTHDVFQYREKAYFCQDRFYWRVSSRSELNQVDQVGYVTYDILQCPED

Voltage-gated inwardly rectifying potassium channel KCNH2, sequence (Q12809 whole entry): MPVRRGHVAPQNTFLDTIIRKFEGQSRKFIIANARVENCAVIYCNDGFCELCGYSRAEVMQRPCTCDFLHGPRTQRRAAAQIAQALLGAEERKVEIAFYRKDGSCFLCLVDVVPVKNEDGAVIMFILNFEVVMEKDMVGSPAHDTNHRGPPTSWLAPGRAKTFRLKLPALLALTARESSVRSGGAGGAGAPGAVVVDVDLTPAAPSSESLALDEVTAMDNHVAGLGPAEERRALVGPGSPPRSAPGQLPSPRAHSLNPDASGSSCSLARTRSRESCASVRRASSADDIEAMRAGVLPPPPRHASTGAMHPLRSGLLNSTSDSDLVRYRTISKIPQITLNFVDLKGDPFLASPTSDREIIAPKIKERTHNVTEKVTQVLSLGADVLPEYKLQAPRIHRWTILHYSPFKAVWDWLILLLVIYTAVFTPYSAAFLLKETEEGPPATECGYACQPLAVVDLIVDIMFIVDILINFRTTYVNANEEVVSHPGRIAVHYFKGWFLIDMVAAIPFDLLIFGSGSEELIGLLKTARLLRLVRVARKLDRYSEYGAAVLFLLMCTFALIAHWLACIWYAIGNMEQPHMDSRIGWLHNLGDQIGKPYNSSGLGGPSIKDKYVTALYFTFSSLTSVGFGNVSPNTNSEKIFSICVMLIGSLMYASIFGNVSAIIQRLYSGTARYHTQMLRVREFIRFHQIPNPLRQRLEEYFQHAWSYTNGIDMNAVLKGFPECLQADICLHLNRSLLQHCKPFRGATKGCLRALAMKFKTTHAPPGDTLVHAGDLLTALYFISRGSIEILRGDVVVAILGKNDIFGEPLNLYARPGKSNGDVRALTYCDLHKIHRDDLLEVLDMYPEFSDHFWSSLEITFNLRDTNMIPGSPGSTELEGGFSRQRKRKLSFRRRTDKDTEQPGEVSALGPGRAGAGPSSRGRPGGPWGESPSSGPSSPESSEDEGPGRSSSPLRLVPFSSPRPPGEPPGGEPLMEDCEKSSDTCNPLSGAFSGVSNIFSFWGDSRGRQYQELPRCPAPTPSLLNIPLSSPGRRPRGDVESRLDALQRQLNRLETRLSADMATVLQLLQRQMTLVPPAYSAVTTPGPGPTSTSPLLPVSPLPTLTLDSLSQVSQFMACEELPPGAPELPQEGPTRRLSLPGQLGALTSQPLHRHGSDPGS
Cytochrome P450 3A4, sequence (P08684 whole entry): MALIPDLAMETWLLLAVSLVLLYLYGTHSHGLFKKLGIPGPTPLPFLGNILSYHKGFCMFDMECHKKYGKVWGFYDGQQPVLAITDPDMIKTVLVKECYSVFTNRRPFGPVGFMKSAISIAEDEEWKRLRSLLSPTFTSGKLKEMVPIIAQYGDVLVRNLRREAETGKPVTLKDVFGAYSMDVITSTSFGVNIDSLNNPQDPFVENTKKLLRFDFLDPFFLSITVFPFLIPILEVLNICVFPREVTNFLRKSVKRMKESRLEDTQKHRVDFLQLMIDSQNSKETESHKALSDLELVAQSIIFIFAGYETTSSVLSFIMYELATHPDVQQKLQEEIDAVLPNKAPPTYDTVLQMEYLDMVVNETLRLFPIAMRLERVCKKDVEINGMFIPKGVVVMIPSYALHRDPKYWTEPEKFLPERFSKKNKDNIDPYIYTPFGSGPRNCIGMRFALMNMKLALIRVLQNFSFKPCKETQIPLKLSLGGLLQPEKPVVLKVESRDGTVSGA

**Q.** With `C=C(C)C1(O)OC(=O)C=C1OC` (stereo not drawn) [PENICILLIC ACID] as the compound, how does the IC50 (Glycine receptor) read?
**A.** Not Active

**Q.** What about the IC50 [1] of the same compound?
**A.** Not Active

**Q.** And the Ki [1]?
**A.** Not Active

**Q.** What about the IC50 [2] of the same compound?
**A.** Not Active

**Q.** And the Ki [2]?
**A.** Not Active

**Q.** What about the IC50 (Cytochrome P450 3A4) of the same compound?
**A.** Not Active

**Q.** And the Ki (Cytochrome P450 3A4)?
**A.** Not Active

**Q.** What about the IC50 [3] of the same compound?
**A.** Not Active

**Q.** And the IC50 (Cathepsin G)?
**A.** Not Active

**Q.** And the IC50 [4]?
**A.** Not Active

**Q.** And the IC50 [5]?
**A.** Not Active

**Q.** Which results are given for `CCCN1C[C@H](CSC)C[C@@H]2c3cccc4[nH]cc(c34)C[C@H]21` [PERGOLIDE]?
**A.** IC50 (Glycine receptor): Not Active; IC50 [1]: Not Active; Ki [1]: Not Active; IC50 [2]: Not Active; Ki [2]: Not Active; IC50 (Cytochrome P450 3A4): Not Active; Ki (Cytochrome P450 3A4): Not Active; IC50 [3]: Not Active; IC50 (Cathepsin G): Not Active; IC50 [4]: Not Active; IC50 [5]: Not Active

**Q.** Which IC50 (Glycine receptor) does the source give for `C1CCC(C(CC2CCCCN2)C2CCCCC2)CC1` (stereo not drawn) [PERHEXILINE] here?
**A.** Not Active

**Q.** What about the IC50 [1] of the same compound?
**A.** Not Active

**Q.** What about the Ki [1] of the same compound?
**A.** Not Active

**Q.** And the IC50 [2]?
**A.** Not Active

**Q.** What about the Ki [2] of the same compound?
**A.** Not Active

**Q.** What about the IC50 (Cytochrome P450 3A4) of the same compound?
**A.** Not Active

**Q.** And the Ki (Cytochrome P450 3A4)?
**A.** Not Active

**Q.** And the IC50 [3]?
**A.** Not Active

**Q.** And the IC50 (Cathepsin G)?
**A.** Not Active

**Q.** What about the IC50 [4] of the same compound?
**A.** Not Active

**Q.** And the IC50 [5]?
**A.** Not Active

**Q.** With `CCOc1ccc(NC(C)=O)cc1` [PHENACETIN] as the compound, how does the IC50 (Glycine receptor) read?
**A.** Not Active

**Q.** What about the IC50 [1] of the same compound?
**A.** Not Active

**Q.** What about the Ki [1] of the same compound?
**A.** Not Active

**Q.** What about the IC50 [2] of the same compound?
**A.** Not Active

**Q.** What about the Ki [2] of the same compound?
**A.** Not Active

**Q.** What about the IC50 (Cytochrome P450 3A4) of the same compound?
**A.** Not Active

**Q.** And the Ki (Cytochrome P450 3A4)?
**A.** Not Active

**Q.** What about the IC50 [3] of the same compound?
**A.** Not Active

**Q.** And the IC50 (Cathepsin G)?
**A.** Not Active

**Q.** What about the IC50 [4] of the same compound?
**A.** Not Active

**Q.** And the IC50 [5]?
**A.** Not Active

**Q.** For `CNNCc1ccc(C(=O)NC(C)C)cc1` [PROCARBAZINE], which IC50 (Glycine receptor) is on record?
**A.** Not Active

**Q.** And the IC50 [1]?
**A.** Not Active

**Q.** What about the Ki [1] of the same compound?
**A.** Not Active

**Q.** And the IC50 [2]?
**A.** Not Active

**Q.** And the Ki [2]?
**A.** Not Active

**Q.** And the IC50 (Cytochrome P450 3A4)?
**A.** Not Active

**Q.** And the Ki (Cytochrome P450 3A4)?
**A.** Not Active

**Q.** What about the IC50 [3] of the same compound?
**A.** Not Active

**Q.** And the IC50 (Cathepsin G)?
**A.** Not Active

**Q.** And the IC50 [4]?
**A.** Not Active

**Q.** And the IC50 [5]?
**A.** Not Active

**Q.** For `CC(O)CO` (stereo not drawn) [PROPYLENE GLYCOL], which IC50 (Glycine receptor) is on record?
**A.** Not Active

**Q.** And the IC50 [1]?
**A.** Not Active

**Q.** What about the Ki [1] of the same compound?
**A.** Not Active

**Q.** And the IC50 [2]?
**A.** Not Active

**Q.** And the Ki [2]?
**A.** Not Active

**Q.** And the IC50 (Cytochrome P450 3A4)?
**A.** Not Active

**Q.** And the Ki (Cytochrome P450 3A4)?
**A.** Not Active

**Q.** And the IC50 [3]?
**A.** Not Active

**Q.** And the IC50 (Cathepsin G)?
**A.** Not Active

**Q.** And the IC50 [4]?
**A.** Not Active

**Q.** And the IC50 [5]?
**A.** Not Active

**Q.** Which results are given for CADMIUM ACETATE?
**A.** IC50 (Glycine receptor): Not Active; Ki (Glycine receptor): Not Active; IC50 [1]: Not Active; Ki [1]: Not Active; IC50 [2]: Not Active; Ki [2]: Not Active; IC50 (Cytochrome P450 3A4): Not Active; Ki (Cytochrome P450 3A4): Not Active; IC50 [3]: Not Active; Ki [3]: Not Active; IC50 (Cathepsin G): Not Active; Ki (Cathepsin G): Not Active; IC50 [4]: Not Active; Ki [4]: Not Active; IC50 [5]: Not Active; Ki [5]: Not Active

**Q.** Which results are given for LEAD (II) ACETATE?
**A.** IC50 (Glycine receptor): Not Active; Ki (Glycine receptor): Not Active; IC50 [1]: Not Active; Ki [1]: Not Active; IC50 [2]: Not Active; Ki [2]: Not Active; IC50 (Cytochrome P450 3A4): Not Active; Ki (Cytochrome P450 3A4): Not Active; IC50 [3]: Not Active; Ki [3]: Not Active; IC50 (Cathepsin G): Not Active; Ki (Cathepsin G): Not Active; IC50 [4]: Not Active; Ki [4]: Not Active; IC50 [5]: Not Active; Ki [5]: Not Active

**Q.** Which results are given for LIPOPOLYSACCHARIDE E. COLI O55:B5?
**A.** IC50 (Glycine receptor): Not Active; Ki (Glycine receptor): Not Active; IC50 [1]: Not Active; Ki [1]: Not Active; IC50 [2]: Not Active; Ki [2]: Not Active; IC50 (Cytochrome P450 3A4): Not Active; Ki (Cytochrome P450 3A4): Not Active; IC50 [3]: Not Active; Ki [3]: Not Active; IC50 (Cathepsin G; read-out: IC50): 0.852 µM; IC50 [4]: Not Active; Ki [4]: Not Active; IC50 [5]: Not Active; Ki [5]: Not Active
